Laboratory results from patent US7049331B2, “1,2,4-thiadiazole derivatives as melanocortin receptor modulators” (Ortho-McNeil Pharmaceutical, Inc., priority 2001, dated 2006).
Where two headings read alike, the source gives them in different places.

Assays:
Cortical Cells = experiment: Neurite Cell Outgrowth Assay, cortical cells; format: cell-based; conditions: Rattus norvegicus; 50 nM; percent change over the vehicle response; NA = no change/not active
How it was run: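 Rat E18 hippocampal or cortical neurons plated at 30,000 cells/well, treated 24 h after plating with compound at 50 nM, refreshed on day 3. At one week, fixed and MAP-2 immunostained with FITC secondary, read by fluorescence; outgrowth given as percent change versus vehicle.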

Food-Deprived Rats = experiment: Rodent Feeding: Food Intake in Food-Deprived Rats (MC-4); format: in vivo, rat; conditions: Rattus norvegicus
Text: Rodent Feeding: Food Intake in Food-Deprived Rats (MC-4)
Male Long-Evans rats (180–200 grams) were housed individually and maintained on a once-a-day feeding schedule (i.e.10 a.m. until 4 p.m.) for five days following quarantine to allow the animals to acclimate to feeding on powdered chow (#5002 PMI Certified Rodent Meal) during the allotted time. The chow was made available in an open jar, anchored in the cage by a wire, with a metal follower covering the food to minimize spillage. Water was available ad-libitum.
Animals were fasted for 18 hours prior to testing. At the end of the fasting period, animals were administered either a test compound or vehicle. Vehicle and test compound were administered either orally (5 mL/kg) 60 minutes prior to the experiment, subcutaneously (1 mL/kg) 30 minutes prior to the experiment, or intraperitoneally (1 mL/kg) 30 minutes prior to the experiment. Test compounds were administered orally as a suspension in aqueous 0.5% methylcellulose-0.4% Tween 80, or intraperitoneally as a solution or suspension in PEG 200; compound concentrations typically ranged from 1 mg/kg to 100 mg/kg, preferably from 10–30 mg/kg. Food intake was measured at 2, 4, and 6 hours after administration by weighing the special jar containing the food before the experiment and at the specified times. Upon completion of the experiment, all animals were given a one-week washout period before re-testing.
Following the procedure described above, select compounds of the present invention were tested to measure the effect on food intake in fasted rats, as listed in Table 5 and 6.

[1] = test system: Male Long-Evans rats, facial nerve compression; experiment: In vivo Facial Nerve Compression Model; parameters: species or system rat; conditions: for Percent Recovery of whisker movement D9 / Percent Recovery of whisker movement D10 / Percent Recovery of whisker movement D11 / Percent Recovery of whisker movement D12 / Percent Recovery of whisker movement D13 / Percent Recovery of whisker movement D14: test compounds p.o. 20 mg/kg bid, αMSH s.c. 70 ug/each 48 hr; for Percent Recovery of whisker movement D9: % of sham-operated side; for recovery time to restore whisker muscle movement: lesioned rats vs vehicle controls (p<0.05), p.o. 20 mg/kg bid
Text: The ability of test compound to provide neuro-protective or neuro-regenerative effects was investigated in a facial nerve compression model. Facial nerve motor axons arise exclusively from neurons within the pons in a well-defined nucleus. Facial nerve compression results in retrograde reactions proximal to the lesion site and Wallerian degeneration at its distal part, which causes diminished whisker movement on the lesioned side.
Male Long-Evans rats (150–180 g) were anesthetized with 3–5% isoflorane for induction and 2% for maintenance during the surgical procedures. The right facial nerve was exposed and compressed with forceps for 30 sec at its exit from the stylomastoid foramen. The left facial nerve was sham-operated and served as an internal control. […] The following morphological abnormalities associated with the functional deficit were observed:
After recovery from anesthesia, the rats were randomly divided into groups for dosing with vehicle, αMSH or test compound, with 6 animals per group. αMSH (s.c., 70 ug/each 48 hr) was used as a positive control. Test compounds were dosed p.o. at 20 mg/kg bid for 14 days. Restoration of whisker movement was monitored daily after the operation using two criteria:
(1) frequency of whisker movement on the lesioned side relative to the opposite side (sham-operated) which served as the baseline control
(2) semi-quantitative measurements (0 to 4+) on strength of the whisker muscles, characterized based on observation of the percentage of moved whiskers, muscle tone of whisker muscles, and the position of the nose. For all observations, the experimental design was blind to the behavioral observer.
The recovery rate of the whisker movement was expressed as percentage of its own internal control (sham-operated), as listed in Table 8.

[2] = ip, 2 h, ip, read-out: Change in Food Intake 0–2 hrs (%)
[3] = ip, 6 h, ip, read-out: Change in Food Intake 2–6 hrs (%)
[4] = po, 2 h, po, read-out: Change in Food Intake 0–2 hrs (%)
[5] = po, 6 h, po, read-out: Change in Food Intake 2–6 hrs (%)

Row | SMILES | activation at 0.05 µM (Cortical Cells) [%] | change in vivo at 1 mg/kg (Food-Deprived Rats; [2]) [%] | change in vivo at 3 mg/kg (Food-Deprived Rats; [2]) [%] | change in vivo at 1 mg/kg (Food-Deprived Rats; [3]) [%] | change in vivo at 3 mg/kg (Food-Deprived Rats; [3]) [%] | change in vivo at 1 mg/kg (Food-Deprived Rats; [4]) [%] | change in vivo at 3 mg/kg (Food-Deprived Rats; [4]) [%] | change in vivo at 10 mg/kg (Food-Deprived Rats; [4]) [%] | change in vivo at 30 mg/kg (Food-Deprived Rats; [4]) [%] | change in vivo at 1 mg/kg (Food-Deprived Rats; [5]) [%] | change in vivo at 3 mg/kg (Food-Deprived Rats; [5]) [%] | change in vivo at 10 mg/kg (Food-Deprived Rats; [5]) [%] | change in vivo at 30 mg/kg (Food-Deprived Rats; [5]) [%] | Percent Recovery of whisker movement D9 [1] [%] | Percent Recovery of whisker movement D10 [1] [%] | Percent Recovery of whisker movement D11 [1] [%] | Percent Recovery of whisker movement D12 [1] [%] | Percent Recovery of whisker movement D13 [1] [%] | Percent Recovery of whisker movement D14 [1] [%] | recovery time to restore whisker muscle movement [1]
1 | COc1ccccc1-[n+]1sc(Nc2ccc(C)cc2)nc1-c1ccccc1.[Br-] [Compound 31, 2-(2-methoxyphenyl)-3-phenyl-5-p-tolylamino-[1,2,4]thiadiazol-2-ium] | 16 | -20.6 | -37.8 | -71.2 | -50 | 1.2 | -9 | -10.1 | -23.6 | 19.5 | 52.1 | 39.7 | 31.5 | 0 | 3.5 | 67.8 | 98.5 | 100 | 100 | accelerated the recovery time
2 | c1ccc(CNc2nc(-c3ccccc3)[n+](-c3ccccc3)s2)cc1 [Compound 84] | 17 | – | – | – | – | – | – | – | -7 | – | – | – | 32 | 0 | 4.8 | 35.1 | 90.0 | 98.3 | 100 | accelerated the recovery time
